Laboratory results reported in patent publication US20160243136A1, “PHARMACEUTICAL FORMULATIONS CONTAINING MITOCHONDRIALLY TARGETED ANTIOXIDANTS” (Mitotech SA, priority 2013, published 2016).

Experiments:
[1] = tested on: rat model of APN; experiment: In vivo rat model of acute pyelonephritis (APN), bacteria introduced in the bladder; settings: 7th day
Description: An in vivo experimental model of APN was used where bacteria are introduced in the bladder of rat (Gupta et al. (1995) J. Med. Microbiol. 43:33-36). Experiments were performed on outbred white female rats (180-200 g) fed ad libitum. Animal protocols were approved by the Institutional Review Boards. Rats were anesthetized with chloral hydrate (300 mg/kg, intraperitoneally(ip)). The animals were infected intraurethrally using a soft Intramedic non-radio-opaque polyethylene catheter (Clay Adams, USA). The inoculum (5 ml per kg, 1×10^8 CFU/ml of rat fecal bacterial composition) was injected slowly to avoid any leakage […]. Control animals were untreated. The therapeutic protocol of SkQR1 used to treat this pathology was as follows: […], with subsequent injections of the same amount of SkQR1 at 12, 24, 36 and 48 hrs; in total, each animal received 500 nmol SkQR1 per kg. […]
Kidney mitochondria were isolated by homogenization and differential centrifugation in a medium containing 250 mM sucrose, 20 mM HEPES-KOH, 1 mM EGTA and 0.1% BSA, pH7.4. Total mitochondrial protein was determined using a bicinchoninic acid protein assay kit (Sigma-Aldrich, USA). The mitochondria from cultured kidney cells were isolated by the same protocol.
The ROS-sensitive fluorescent probe 2,7-DCF-DA (Molecular Probes, USA) dissolved in DMEM/F12 without bicarbonate (final concentration 10 μM) was added to renal cells (500 μl per well of 24-well plate, 2 ml per dish) and incubated for 15 min at 37° C. followed by a wash with DMEM/F12 without bicarbonate. MDA was determined as in (Mihara and Uchiyama (1978) Anal. Biochem. 86:271-8). Fluorescent probe, DAF-2-DA (Calbiochem, San Diego, Calif., USA) was used for NO determination in living cells. The procedure was the same as for 2,7-DCF-DA. The nitrite/nitrate concentration (as products of NO oxidation) in culture media was determined using Nitrite/Nitrate Assay Kit (Sigma-Aldrich, USA). TNFα was determined using the kit Rat TNFα ELISA Ready-SET-Go (Ebioscience, USA).
The kidney was isolated immediately after sacrificing the animal and perfused with ice-cold PBS. It was then fixed in a 10% neutral buffered formalin solution, embedded in paraffin and used for histopathological examination. Five micrometer thick sections were cut, deparaffinized, hydrated, and stained with hematoxylin and eosin. The renal sections were examined in blinded fashion for inflammation and infiltration by leukocytes in the kidneys of all treated animals. A minimum of 10 fields for each kidney slide were examined and scored for pathologic severity.
The manifestation of inflammatory indicators (i.e., a number of infiltrated leukocytes in every layer and the presence of abscesses) under APN was evaluated using the following scale: 0, none; 1, 5-50 leukocytes in the view field; […]; 4, abscesses with pus-necrotic content. The distribution of inflammatory changes (i.e., comparative analysis of infiltration and abscesses) was evaluated by the following criteria: 0, none in any layer; 1, infiltration in the medullar layer; 2, infiltration reaching the cortex.
(§1) Kidney homogenates for MPO determination were centrifuged at 20000 g 15 min, the pellets were resuspended in 50 mM K-phosphate buffer containing 0.5% CTAB. Resulted samples were frozen and thawed three times and then centrifuged at 10600 g 10 min. Supernatants were analyzed for MPO activity in chromogenic reaction with o-phenylenediamine (OPD). 100 μl sample was mixed with 100 μl substrate buffer (25 mM Na-citrate, 50 mM Na-phosphate, 0.45 mg/ml OPD, 0.1% H2O2, pH 5.0) and was incubated 15 min at room temperature and then OD was detected at 492 nm.
Samples of kidney homogenates were loaded onto 15% Tris-glycine polyacrylamide gels (10-20 μg of total protein per lane). After electrophoresis, gels were blotted onto PVDF membranes (Amersham Pharmacia Biotech, UK). […]

[2] = tested on: Human neutrophils; experiment: f-MLP-stimulated neutrophil MMP-9 release by zymography; type: cell-based; settings: 0.2 nM, 2 nM, and 200 nM; 1.5 hr pre-incubation; 1 nM f-MLP 30 min; vs vehicle control
Description: Human neutrophils were isolated from anticoagulated blood of healthy donors. Neutrophils were pre-incubated with 0.2 nM, 2 nM, 20 nM, 200 nM, and 500 nM SkQ1 solution in RPMI-1640 medium supplemented with 10% fetal serum for 1.5 hr at 37° C. in 5% CO2. The cells were then stimulated with 1 nM N-formyl-methionine-leucine-phenylalanine (f-MLP) for 30 min. The supernatants from the cells were used to detect MMP-9 activity by zymography analysis (MMP-9 release was used to estimate tissue damage). The data from this assay was shown as means at least for 3 separate experiments.

[3] = tested on: Wistar rats with experimental hepatitis; experiment: D-galactosamin-induced experimental hepatitis; type: in vivo, rat; settings: 7 d before induction, control median 2
Description: Experimental hepatitis was induced in 8-10 weeks old Wistar rats weighing […] by intraperitoneal injection of 500 mg/kg D-galactosamin in 0.9% NaCl. SkQ1 was administered by gavage in aqueous solution at doses of 10 nmol/kg/day, 50 nmol/kg/day, 250 nmol/kg/day, and 1250 nmol/kg/day starting 7 d before induction of hepatitis and ending at the day of induction. The animals were sacrificed 24 hrs after the induction of hepatitis. Inflammation score was estimated for each animal on a 3-point scale by blind examination of hematoxylin-eosin stained liver sections.

[4] = tested on: Wistar rats with acute pancreatitis; experiment: Arginine-induced acute pancreatitis model; type: in vivo, rat; settings: for MPO activity in pancreatic tissue homogenates: control 52.9, intact 6.1
Description: as §1
42 Wistar rats (age: 20-25 week, weight 400 g-750 g) were distributed among 4 experiemntal groups with the same average weight. SkQ1 was administered with drinking water with an estimated dosage of 250 nmoles/kg/day or 50 nmoles/kg/day. Acute pancreatitis was induced by a single intraperitoneal (ip) injection of arginine (100 mg/100 g of animal weight; 20% arginine solution in about 2.5 ml phosphate buffer).
The experimental groups were: (1) Intact (n=10); (2) Control (n=10) treated with arginine ip injection; (3) SkQ250-SkQ1 pretreatment with 250 nmoles/kg/day dosage for 9 days; IP injection of arginine on day 9, continuation of SkQ1 treatment for 24 hr (n=10); and (4) SkQ50-SkQ1 pretreatment with 50 nmoles/kg/day dosage for 9 days. IP injection of arginine on day 9, continuation of SkQ1 treatment for 24 hr (n=10).
The activity of pancreatic myeloperoxidase (MPO) was also measured as described in Example 1 (for kidney tissue).
Samples of pancreas were fixed in 10% formalin and then prepared for eosin-hematoxylin staining of 5 μm-6 μm slices using standard techniques. Stained samples (slices) were examined under light microscopy.
The intensity of inflammation in the samples was measured by a standard ascending scale score from 0 to 3. The average score of inflammation in rats without SkQ treatment was 1.5.

## CC1=C(C)C(=O)C(CCCCCCCCCC[P+](c2ccccc2)(c2ccccc2)c2ccccc2)=CC1=O [SkQ1, 10-(6-plastoquinonyl)decyl-triphenylphosphonium]
[1]; SkQ1 100 nmol/kg ip on 3rd day
  leukocyte concentration in blood: significantly reduced
[1]; SkQ1 100 nmol/kg ip on 3rd day after induction, vs animals not receiving SkQ1
  neutrophils concentration in blood: twice as low
[1]; SkQ1 ip on third day after induction
  MPO activity in renal tissue (inflammation of kidney tissue): significant suppression
[2]
  neutrophil-MMP-9 activation induced by f-MLP: prevented
[3]; 50 nmol/kg/day by gavage, p<0.01
  inflammation score (3-point scale, liver sections): 1.5
[3]; 1250 nmol/kg/day by gavage, p<0.001
  inflammation score (median, 3-point scale, liver sections): 1
[4]; SkQ50: 50 nmoles/kg/day for 9 days + 24 hr
  MPO activity in pancreatic tissue homogenates: 50.0
[4]; SkQ50: 50 nmoles/kg/day, untreated pancreatitis 1.5
  Average inflammation score (pancreas histology, scale 0 to 3): 1.5
[4]; SkQ250: 250 nmoles/kg/day for 9 days + 24 hr
  MPO activity in pancreatic tissue homogenates: 15.8
[4]; both dosages (250 and 50 nmoles/kg/day in drinking water)
  weight of the pancreas (edema): prevented an increase
